Patent US12193465B2, “Materials and methods for extending shelf-life of foods” (JP Laboratories, Inc., priority 2021, dated 2025)

Legend:
[1] = test system: grains, legumes, potatoes, garlic; assay: Germination / sprouting of grains, legumes and tubers
Excerpt: These bags were sealed with a heat sealer.
(§1) The assembly was shaken periodically.

avocado = assay: Softening / rotten inside (spoiled flesh) of avocado; settings: for Spoilage Time - Sample: Softening, Avocado, control 2 days
Excerpt: (§2) Most of the foods changed color or texture.
as §1

[2] = test system: parval, methi, coriander, radish, guar; assay: Shriveling / wilting / dehydration / becoming wet of produce
Excerpt: as §2, §1

Compound: C=CCN=C=S [AI, allyl isothiocyanate]
- Spoilage Time - Sample ([1]; Example 66, Germination, Mixed Legumes (T), 0.10 g, control 3 days): 9 days
- Spoilage Time - Sample ([1]; Example 67, Germination, Mixed Legumes, Sachet, control 4 days): 21 days
- Spoilage Time - Sample ([1]; Example 67, Germination, Mixed Legumes, Sachet, control 4 days, listed as allyl isothiocyanate): > 21 days
- Spoilage Time - Sample ([1]; Example 68, Germination, Mixed Legumes, Sachet, control 3 days): 9 days
- Spoilage Time - Sample ([1]; Example 69, Germination, Soft White Wheat, Sachet, control 4 days): 21 days
- Spoilage Time - Sample ([1]; Example 70, Germination, Soft White Wheat, 5 ml of 10% allyl isothiocyanate solution in water, control 4 days): 21 days
- Spoilage Time - Sample ([1]; Example 71, Germination, Unshelled Rice, Sachet, control 3 days): 15 days
- Spoilage Time - Sample ([1]; Example 79, Sprouting, Red Potatoes, 2 hrs P-E, control 9 days): 16 days
- Spoilage Time - Sample ([1]; Example 80, Sprouting, Mix of red, purple and yellow potatoes, 4 hrs P-E, control 22 days): 46 days
- Spoilage Time - Sample ([1]; Example 81, Sprouting, Fingerling Potatoes, 2 hrs P-E, control 37 days): 59 days
- Spoilage Time - Sample ([1]; Example 82, Sprouting, Sprouted Garlic, 0.5 hr P-E, control 4 days): 4+ days
- Spoilage Time - Sample ([1]; Example 82, Sprouting, Sprouted Garlic, 0.5 hr P-E, control 4 days, listed as allyl isothiocyanate): no further growth of sprouts
- Germination and/or fungus ([1]; flooded shelled peanuts, a drop in flooded water, control 5 days): > 8 days
- Sprouting ([1]; various types of potatoes, vapor or sachet, Examples 79-81): either prevented or significantly delayed
- Spoilage Time - Sample (avocado; Example 77, 0.25 hr P-E): 2 days
- Spoilage Time - Sample (avocado; Example 78, 2 hrs P-E): 2 days
- Spoiling of the flesh with development of fungus (avocado; avocados, Examples 77, 78, 107, 108, 113 & 171): significantly delayed
- Spoilage Time - Sample ([2]; Example 75, Shriveling, Parval, 0.5 hr P-E, control 4 days): 4+ days
- Spoilage Time - Sample ([2]; Example 76, Shriveling, Parval, 1 hr P-E, control 4 days): 4+ days
- Spoilage Time - Sample ([2]; Example 83, Wet, Methi (Indian fenugreek), 1 hr P-E, control 9 days): 30 days
- Spoilage Time - Sample ([2]; Example 83, Wet, Methi (Indian fenugreek), 1 hr P-E, control 9 days, listed as allyl isothiocyanate): remained fresh and green
- Crispness of treated guar ([2]; guar exposed to vapor, lost green color slightly): remained crisp
